Source: patent US4599357A, “1-mercaptoalkanoylindoline-2-carboxylic acids” (Ciba-Geigy Corporation, priority 1980, dated 1986)

Test system: angiotensin I converting enzyme
Test: inhibition of the angiotensin I pressor response in anesthetized normotensive rats
Format: in vivo
Protocol: The enzyme renin, normally causes specific hydrolysis of the circulating protein renin-substrate. This hydrolysis generates angiotensin I, which is further hydrolyzed by the action of said converting enzyme to the potent vasoconstrictor angiotensin II. The inhibition of said enzyme prevents the generation of angiotensin II from I and, therefore, attenuates any pressure response following an angiotensin I challenge.
The corresponding in vivo test is performed with male, normotensive rats, which are anesthetized with 100-120 mg/kg i.p. of sodium ethyl-(1-methylpropyl)malonylthiourea. A femoral artery and saphenous vein are cannulated for direct blood pressure measurement and i.v. administration of angiotensin I and compounds of this invention. After the basal blood pressure is stabilized, pressor responses to 3 challenges of 0.33 μg/kg of angiotensin I i.v., in 5 minute intervals, are obtained. Such pressure responses are again obtained 5, 10, 15, 30 and 60 minutes after either i.v., or p.o. administration (stomach tube) of the compounds to be tested, and compared with the initial responses. Any observed decrease of said pressor response is an indication of angiotensin I converting enzyme inhibition, ranging up to 80% after 10 mg/kg i.v., or 50 mg/kg p.o. doses, which decrease may be sustained up to 60 minutes.

In the case of C[C@H](CS)C(=O)N1c2ccccc2C[C@H]1C(=O)O [1-(3-mercapto-2S-methylpropanoyl)-indoline-2S-carboxylic acid], the “inhibitory effect against the angiotensin I pressure response” value is reported as “inhibitory effect”.
